Measured values from patent US20240228506A1, “RIPK1 INHIBITORS AND METHODS OF USE” (Merck Sharp & Dohme LLC, priority 2021, published 2024).

Each compound was assayed against T1, GST-RIPK1 (recombinant GST-RIPK1 kinase domain (residues 1-327)) (Homo sapiens, UniProt Q13546) (assay: RIPK1-ADP-Glo enzymatic assay). Conditions: 25 nM GST-RIPK1, 300 μM ATP, 3 μM dephosphorylated-MBP; 30 minutes pre-incubation, 150 minutes reaction; ten-point titration.
T1 construct: recombinant GST-RIPK1 kinase domain (residues 1-327) enzyme; made in house; host or cells: baculovirus-transfected Sf21 insect cells
T1 sequence (Q13546 1-327): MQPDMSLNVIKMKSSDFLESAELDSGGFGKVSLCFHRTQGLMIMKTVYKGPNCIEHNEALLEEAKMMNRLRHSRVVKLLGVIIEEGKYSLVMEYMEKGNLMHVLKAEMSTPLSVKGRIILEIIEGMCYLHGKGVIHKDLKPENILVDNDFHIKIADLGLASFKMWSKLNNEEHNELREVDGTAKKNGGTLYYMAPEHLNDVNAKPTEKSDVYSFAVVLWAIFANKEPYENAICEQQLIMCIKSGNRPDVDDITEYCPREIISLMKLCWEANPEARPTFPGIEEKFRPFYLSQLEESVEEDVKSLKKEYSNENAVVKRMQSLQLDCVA
Type: biochemical
Summary of the method: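 Ten-point 1:3 titrations from 100000 nM, 1% DMSO, were preincubated 30 min with 25 nM GST-RIPK1 (1-327) before starting with 300 μM ATP plus 3 μM dephosphorylated MBP; 150 min reaction. ADP-Glo luminescence measured ATP-to-ADP conversion; EC50 by four-parameter sigmoidal regression.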

Q: With `N#Cc1cncc2c1O[C@H]1C[C@@H]2N(C(=O)C2(F)CCN(c3nccn4ncnc34)CC2)C1` [Compound 1-58, (2S,5S)-4-(1-([1,2,4]triazolo[1,5-a]pyrazin-8-yl)-4-fluoropiperidine-4-carbonyl)-2,3,4,5-tetrahydro-2,5-methanopyrido[3,4-f][1,4]oxazepine-9-carbonitrile] as the compound, how does the IC50 read?
A: The IC50 was 74 nM.

Q: `CC1OCCC1(C)C(=O)N1C[C@@H]2C[C@H]1c1cncc(C#N)c1O2` (stereo partly drawn) [Compound 1-59, (2S,5S)-4-(2,3-dimethyltetrahydrofuran-3-carbonyl)-2,3,4,5-tetrahydro-2,5-methanopyrido[3,4-f][1,4]oxazepine-9-carbonitrile] was tested. Which IC50 did it give?
A: The IC50 was 587 nM.

Q: For `N#Cc1cncc2c1O[C@H]1C[C@@H]2N(C(=O)C2(C(F)F)CCCO2)C1` (stereo partly drawn) [Compound 1-60, (2S,5S)-4-(2-(difluoromethyl)tetrahydro-furan-2-carbonyl)-2,3,4,5-tetrahydro-2,5-methanopyrido[3,4-f][1,4]oxazepine-9-carbonitrile], which IC50 is on record?
A: Its IC50 is 230 nM.

Q: With `N#Cc1cncc2c1O[C@H]1C[C@@H]2N(C(=O)C23CCC(CC2)CC3)C1` [Compound 1-61, (2S,5S)-4-(bicyclo[2.2.2]octane-1-carbonyl)-2,3,4,5-tetrahydro-2,5-methanopyrido[3,4-f][1,4]oxazepine-9-carbonitrile] as the compound, how does the IC50 read?
A: Its IC50 is 34 nM.

Q: For `N#Cc1cncc2c1O[C@H]1C[C@@H]2N(C(=O)C23CCC(F)(CC2)CC3)C1` [Compound 1-63, (2S,5S)-4-(4-fluorobicyclo[2.2.2]octane-1-carbonyl)-2,3,4,5-tetrahydro-2,5-methanopyrido[3,4-f][1,4]oxazepine-9-carbonitrile], which IC50 is on record?
A: The IC50 was 58 nM.

Q: Which IC50 does the source give for `COC1(C(=O)N2C[C@@H]3C[C@H]2c2cncc(C#N)c2O3)CCCC1` [Compound 1-65, (2S,5S)-4-(1-methoxycyclopentane-1-carbonyl)-2,3,4,5-tetrahydro-2,5-methanopyrido[3,4-f][1,4]oxazepine-9-carbonitrile] here?
A: The IC50 was 76 nM.

Q: How did the IC50 turn out when `N#Cc1cncc2c1O[C@H]1C[C@@H]2N(C(=O)C23CC(C(F)(F)F)(CO2)C3)C1` [Compound 1-66, (2S,5S)-4-(4-(trifluoromethyl)-2-oxabicyclo[2.1.1]hexane-1-carbonyl)-2,3,4,5-tetrahydro-2,5-methanopyrido[3,4-f][1,4]oxazepine-9-carbonitrile] was run?
A: Its IC50 is 514 nM.

Q: `CC(C)(Cc1ccccc1)C(=O)N1C[C@@H]2C[C@H]1c1cncc(C#N)c1O2` [Compound 1-68, (2S,5S)-4-(2,2-dimethyl-3-phenylpropanoyl)-2,3,4,5-tetrahydro-2,5-methanopyrido[3,4-f][1,4]oxazepine-9-carbonitrile] was tested. Which IC50 did it give?
A: Its IC50 is 259 nM.

Q: With `CC1(C(=O)N2C[C@@H]3C[C@H]2c2cncc(C#N)c2O3)CC2CCC1C2` (stereo partly drawn) [Compound 1-69, (2S,5S)-4-(2-methylbicyclo[2.2.1]heptane-2-carbonyl)-2,3,4,5-tetrahydro-2,5-methanopyrido[3,4-f][1,4]oxazepine-9-carbonitrile] as the compound, how does the IC50 read?
A: Its IC50 is 77 nM.

Q: `N#Cc1cncc2c1O[C@H]1C[C@@H]2N(C(=O)C2(F)CCN(c3cc(-c4ccccc4)ncn3)CC2)C1` [Compound 1-70, (2S,5S)-4-(4-fluoro-1-(6-phenylpyrimidin-4-yl)piperidine-4-carbonyl)-2,3,4,5-tetrahydro-2,5-methanopyrido[3,4-f][1,4]oxazepine-9-carbonitrile] was tested. Which IC50 did it give?
A: The IC50 was 35 nM.

Q: Which IC50 does the source give for `N#Cc1cncc2c1O[C@H]1C[C@@H]2N(C(=O)C2(F)CCN(c3cc(C4CC4)ncn3)CC2)C1` [Compound 1-71, (2S,5S)-4-(1-(6-cyclopropylpyrimidin-4-yl)-4-fluoropiperidine-4-carbonyl)-2,3,4,5-tetrahydro-2,5-methanopyrido[3,4-f][1,4]oxazepine-9-carbonitrile] here?
A: Its IC50 is 232 nM.

Q: For `N#Cc1cncc2c1O[C@H]1C[C@@H]2N(C(=O)C2(F)CCN(c3ccnc(Cl)c3)CC2)C1` [Compound 1-72, (2S,5S)-4-(1-(2-chloropyridin-4-yl)-4-fluoropiperidine-4-carbonyl)-2,3,4,5-tetrahydro-2,5-methanopyrido[3,4-f][1,4]oxazepine-9-carbonitrile], which IC50 is on record?
A: The IC50 was 35 nM.

Q: For `CC12COC(C(=O)N3C[C@@H]4C[C@H]3c3cncc(C#N)c3O4)(C1)C2` [Compound 1-73, (2S,5S)-4-(4-methyl-2-oxabicyclo[2.1.1]hexane-1-carbonyl)-2,3,4,5-tetrahydro-2,5-methanopyrido[3,4-f][1,4]oxazepine-9-carbonitrile], which IC50 is on record?
A: The IC50 was 501 nM.

Q: `CCC1(C(=O)N2C[C@@H]3C[C@H]2c2cncc(C#N)c2O3)CC1` [Compound 1-74, (2S,5S)-4-(1-ethylcyclopropane-1-carbonyl)-2,3,4,5-tetrahydro-2,5-methanopyrido[3,4-f][1,4]oxazepine-9-carbonitrile] was tested. Which IC50 did it give?
A: Its IC50 is 347 nM.

Q: Which IC50 does the source give for `N#Cc1cncc2c1O[C@H]1C[C@@H]2N(C(=O)C2(C(F)(F)F)CC2)C1` [Compound 1-75, (2S,5S)-4-(1-(trifluoromethyl)cyclopropane-1-carbonyl)-2,3,4,5-tetrahydro-2,5-methanopyrido[3,4-f][1,4]oxazepine-9-carbonitrile] here?
A: Its IC50 is 545 nM.

Q: With `CC1(C(=O)N2C[C@@H]3C[C@H]2c2cncc(C#N)c2O3)CC1` [Compound 1-76, (2S,5S)-4-(1-methylcyclopropane-1-carbonyl)-2,3,4,5-tetrahydro-2,5-methanopyrido[3,4-f][1,4]oxazepine-9-carbonitrile] as the compound, how does the IC50 read?
A: Its IC50 is 780 nM.

Q: With `CC1(C(=O)N2C[C@@H]3C[C@H]2c2cncc(C#N)c2O3)CC(F)(F)C1` [Compound 1-77, (2S,5S)-4-(3,3-difluoro-1-methylcyclobutane-1-carbonyl)-2,3,4,5-tetrahydro-2,5-methanopyrido[3,4-f][1,4]oxazepine-9-carbonitrile] as the compound, how does the IC50 read?
A: The IC50 was 139 nM.

Q: How did the IC50 turn out when `N#Cc1cncc2c1O[C@H]1C[C@@H]2N(C(=O)C23CCCCC2C3)C1` (stereo partly drawn) [Compound 1-78, (2S,5S)-4-(bicyclo[4.1.0]heptane-1-carbonyl)-2,3,4,5-tetrahydro-2,5-methanopyrido[3,4-f][1,4]oxazepine-9-carbonitrile] was run?
A: The IC50 was 77 nM.

Q: With `CC(C)C1(C(=O)N2C[C@@H]3C[C@H]2c2cncc(C#N)c2O3)CC1` [Compound 1-79, (2S,5S)-4-(1-isopropylcyclopropane-1-carbonyl)-2,3,4,5-tetrahydro-2,5-methanopyrido[3,4-f][1,4]oxazepine-9-carbonitrile] as the compound, how does the IC50 read?
A: Its IC50 is 446 nM.

Q: How did the IC50 turn out when `COc1cnc(N2CCC(F)(C(=O)N3C[C@@H]4C[C@H]3c3cncc(C#N)c3O4)CC2)nc1` [Compound 1-80, (2S,5S)-4-(4-fluoro-1-(5-methoxypyrimidin-2-yl)piperidine-4-carbonyl)-2,3,4,5-tetrahydro-2,5-methanopyrido[3,4-f][1,4]oxazepine-9-carbonitrile] was run?
A: The IC50 was 332 nM.

Q: How did the IC50 turn out when `N#Cc1cncc2c1O[C@H]1C[C@@H]2N(C(=O)C23CCCC2C3(F)F)C1` (stereo partly drawn) [Compound 1-81, (2S,5S)-4-(6,6-difluorobicyclo[3.1.0]hexane-1-carbonyl)-2,3,4,5-tetrahydro-2,5-methanopyrido[3,4-f][1,4]oxazepine-9-carbonitrile] was run?
A: Its IC50 is 93 nM.

Q: Which IC50 does the source give for `Cc1ncc2c(c1C#N)O[C@H]1C[C@@H]2N(C(=O)C23CCC(C(F)(F)F)(CC2)C3)C1` [Compound 1-82, (2S,5S)-8-methyl-4-(4-(trifluoromethyl)bicyclo[2.2.1]heptane-1-carbonyl)-2,3,4,5-tetrahydro-2,5-methanopyrido[3,4-f](1,4]oxazepine-9-carbonitrile] here?
A: Its IC50 is 13 nM.

Q: For `N#Cc1ccnc(N2CCC(F)(C(=O)N3C[C@@H]4C[C@H]3c3cncc(C#N)c3O4)CC2)n1` [Compound 1-83, (2S,5S)-4-(1-(4-cyanopyrimidin-2-yl)-4-fluoropiperidine-4-carbonyl)-2,3,4,5-tetrahydro-2,5-methanopyrido[3,4-f][1,4]oxazepine-9-carbonitrile], which IC50 is on record?
A: Its IC50 is 30 nM.

Q: Which IC50 does the source give for `CN(C)C(C)(C)C(=O)N1C[C@@H]2C[C@H]1c1cncc(C#N)c1O2` [Compound 1-90, (2S,5S)-4-(2-(dimethylamino)-2-methylpropanoyl)-2,3,4,5-tetrahydro-2,5-methanopyrido[3,4-f][1,4]oxazepine-9-carbonitrile] here?
A: Its IC50 is 85 nM.

Q: `CN(C)C1(C(=O)N2C[C@@H]3C[C@H]2c2cncc(C#N)c2O3)CCC1` [Compound 1-91, (2S,5S)-4-(1-(dimethylamino)cyclobutane-1-carbonyl)-2,3,4,5-tetrahydro-2,5-methanopyrido[3,4-f][1,4]oxazepine-9-carbonitrile] was tested. Which IC50 did it give?
A: Its IC50 is 64 nM.

Q: With `N#Cc1cncc2c1O[C@H]1C[C@@H]2N(C(=O)C23CC(F)(C2)C3)C1` [Compound 1-92, (2S,5S)-4-(3-fluorobicyclo[1.1.1]pentane-1-carbonyl)-2,3,4,5-tetrahydro-2,5-methanopyrido[3,4-f][1,4]oxazepine-9-carbonitrile] as the compound, how does the IC50 read?
A: The IC50 was 84 nM.

Q: With `N#Cc1cncc2c1O[C@H]1C[C@@H]2N(C(=O)C23CC(Cl)(C2)C3)C1` [Compound 1-93, (2S,5S)-4-(3-chlorobicyclo[1.1.1]pentane-1-carbonyl)-2,3,4,5-tetrahydro-2,5-methanopyrido[3,4-f][1,4]oxazepine-9-carbonitrile] as the compound, how does the IC50 read?
A: The IC50 was 88 nM.

Q: Which IC50 does the source give for `CC12CCC(C(=O)N3C[C@@H]4C[C@H]3c3cncc(C#N)c3O4)(CC1)C2` [Compound 1-94, (2S,5S)-4-(4-methylbicyclo[2.2.1]heptane-1-carbonyl)-2,3,4,5-tetrahydro-2,5-methanopyrido[3,4-f][1,4]oxazepine-9-carbonitrile] here?
A: Its IC50 is 15 nM.
